In patent US20040024317A1, “Method for assessing capillary permeability” (priority 2002, published 2004):

Assay: Persistence length by light scattering
Format: physicochemical
Conditions: little or no substitution; folded polypeptide
Excerpt: An elongated, worm-like conformation of a macromolecule results in greater uptake than other conformations, such as folded, or globular conformations. Conformation may be measured by a persistence length of the molecule. This may be determined by light scattering.
The conformation attained by the present polymeric contrast agents is that of a worm-like shape being essentially a stretched out, extended chain with little folding. A measure of the “straightness” of a molecule is a persistence length. Persistence length is related to a radius of gyration, measured by light scattering experiments. A folded polypeptide such as poly-L-lysine (PLL) with little or no substitution, has a low persistence length of about 10 Angstroms (Å), and is not suitable for diagnosing sepsis. Therefore, the present polymeric contrast agents preferably have a persistence lengths of 100-600 Å.

Substance: poly-L-lysine [poly-L-lysine (PLL)]
- persistence length: about 10 Angstroms (Å)
